Assay results as given in article PMC7587356, “High-Throughput Screening for Inhibitors of the SARS-CoV-2 Protease Using a FRET-Biosensor” (Molecules, 2020).
Structures can show the parent of a compound that is named as a salt. Where two headings read alike, the source gives them in different places.

Biological target: SARS-CoV-2 3CLpro (Severe acute respiratory syndrome coronavirus 2, UniProt P0DTD1)
Assay: biochemical
Format: biochemical
Set-up: Replicate_1 / Replicate_2 / mean / mean (LOPAC_screen_w_protease): unit not given here
Conditions: for inhibition at 5 µM: 4 h
[1] = LOPAC1280 primary screen with protease, 5 µM compound, replicate 1, read-out: Replicate_1 (LOPAC_screen_w_protease)
[2] = LOPAC1280 primary screen with protease, 5 µM compound, replicate 2, read-out: Replicate_2 (LOPAC_screen_w_protease)
[3] = LOPAC1280 primary screen with protease, 5 µM compound, mean of the two replicates
[4] = sheet LOPAC_screen_w_protease, primary screen with protease, 5 µM, mean of two replicates, read-out: mean
[5] = sheet LOPAC_screen_w_protease, primary screen with protease, 5 µM, replicate 1, read-out: Replicate_1
[6] = sheet LOPAC_screen_w_protease, primary screen with protease, 5 µM, replicate 2, read-out: Replicate_2
[7] = LOPAC1280 primary screen with protease, 5 µM compound, replicate 1
[8] = LOPAC1280 primary screen with protease, 5 µM compound, replicate 2
[9] = sheet LOPAC_screen_w_protease, primary screen of LOPAC1280 at 5 µM with protease, mean of the two replicates
[10] = sheet LOPAC_screen_w_protease, primary screen of LOPAC1280 at 5 µM with protease, replicate 1
[11] = sheet LOPAC_screen_w_protease, primary screen of LOPAC1280 at 5 µM with protease, replicate 2
[12] = sheet LOPAC_screen_w_protease, LOPAC1280 primary screen at 5 µM, with protease, mean of the two replicates
[13] = sheet LOPAC_screen_w_protease, LOPAC1280 primary screen at 5 µM, with protease, replicate 1
[14] = sheet LOPAC_screen_w_protease, LOPAC1280 primary screen at 5 µM, with protease, replicate 2

Which results are given for `CC(C)C[C@H](NC(=O)[C@H](O)[C@H](N)Cc1ccccc1)C(=O)O` [Epibestatin hydrochloride]?
inhibition at 5 µM [1]: 1.71%; inhibition at 5 µM [2]: 2.3%; mean (LOPAC_screen_w_protease) [3]: 2.008

For `CN1CCN(CCCN2c3ccccc3Sc3ccc(C(F)(F)F)cc32)CC1` [Trifluoperazine dihydrochloride], which inhibition at 5 µM [4] is on record?
The inhibition at 5 µM was 0.187%.

And the inhibition at 5 µM [5]?
The inhibition at 5 µM was 0.0814%.

What about the inhibition at 5 µM [6] of the same compound?
Its inhibition at 5 µM is 0.293%.

`O=c1n(CCCN2CCN(c3cccc(Cl)c3)CC2)nc2ccccn12` [Trazodone hydrochloride] was tested. Which inhibition at 5 µM (sheet LOPAC_screen_w_protease, primary screen with protease, compound at 5 µM, mean of two replicates, read-out: mean) did it give?
The inhibition at 5 µM was 2.86%.

And the inhibition at 5 µM (sheet LOPAC_screen_w_protease, primary screen with protease, compound at 5 µM, replicate 1, read-out: Replicate_1)?
The inhibition at 5 µM was 3.03%.

And the inhibition at 5 µM (sheet LOPAC_screen_w_protease, primary screen with protease, compound at 5 µM, replicate 2, read-out: Replicate_2)?
The inhibition at 5 µM was 2.69%.

`Oc1cccc2c(O)nccc12` [1,5-Isoquinolinediol] was tested. Which “mean (LOPAC_screen_w_protease)” value [3] did it give?
Its value is 2.037.

What about the “Replicate_1 (LOPAC_screen_w_protease)” value [7] of the same compound?
The value was 1.193.

And the “Replicate_2 (LOPAC_screen_w_protease)” value [8]?
Its value is 2.882.

Which results are given for `COc1ccc(CCN(C)CCCC(C#N)(c2cc(OC)c(OC)c(OC)c2)C(C)C)cc1OC.Cl` (racemic) [(±)-Methoxyverapamil hydrochloride]?
mean (LOPAC_screen_w_protease) [3]: 2.071; Replicate_1 (LOPAC_screen_w_protease) [7]: 2.317; Replicate_2 (LOPAC_screen_w_protease) [8]: 1.826

`Cn1c(=O)c2[nH]c(-c3ccc(S(=O)(=O)O)cc3)nc2n(C)c1=O` [8-(p-Sulfophenyl)theophylline] was tested. Which mean (sheet LOPAC_screen_w_protease, primary screen with protease, compound at 5 µM, mean of two replicates) did it give?
Its mean is 3.141.

What about the Replicate_1 (sheet LOPAC_screen_w_protease, primary screen with protease, compound at 5 µM, replicate 1) of the same compound?
The Replicate_1 was 2.844.

And the Replicate_2 (sheet LOPAC_screen_w_protease, primary screen with protease, compound at 5 µM, replicate 2)?
Its Replicate_2 is 3.439.

For `Cl.c1ccc2c(N3CCNCC3)cccc2c1` [1-(1-Naphthyl)piperazine hydrochloride], which “mean (LOPAC_screen_w_protease)” value (LOPAC1280 primary screen with protease, 5 µM compound, mean of two replicates) is on record?
Its value is 1.563.

What about the “Replicate_1 (LOPAC_screen_w_protease)” value [7] of the same compound?
The value was 4.027.

What about the “Replicate_2 (LOPAC_screen_w_protease)” value [8] of the same compound?
Its value is -0.9014.

With `CCCN(CCC)CCc1c[nH]c2ccc(C(N)=O)cc12.O=C(O)/C=C\C(=O)O` as the compound, how does the mean [9] read?
Its mean is 3.512.

And the Replicate_1 [10]?
The Replicate_1 was 3.371.

What about the Replicate_2 [11] of the same compound?
Its Replicate_2 is 3.653.

Which mean [12] does the source give for `CC(=O)[C@H]1CC[C@H]2[C@@H]3CC[C@H]4C[C@H](O)CC[C@]4(C)[C@H]3CC[C@]12C` [5alpha-Pregnan-3alpha-ol-20-one] here?
Its mean is 0.7105.

And the Replicate_1 [13]?
The Replicate_1 was 1.221.

What about the Replicate_2 [14] of the same compound?
Its Replicate_2 is 0.1995.

Which results are given for `Nc1nc(SCc2ccc([N+](=O)[O-])cc2)c2ncn([C@@H]3O[C@H](CO)[C@@H](O)[C@H]3O)c2n1` [S-(4-Nitrobenzyl)-6-thioguanosine]?
mean (sheet LOPAC_screen_w_protease, primary screen with protease, 5 µM, mean of two replicates): -0.2707; Replicate_1 (sheet LOPAC_screen_w_protease, primary screen with protease, 5 µM, replicate 1): 0.3471; Replicate_2 (sheet LOPAC_screen_w_protease, primary screen with protease, 5 µM, replicate 2): -0.8885

Which results are given for `O=C(O)c1cc(=O)c2ccccc2[nH]1` [Kynurenic acid]?
inhibition at 5 µM [1]: 3.13%; inhibition at 5 µM [2]: 0.793%; mean (LOPAC_screen_w_protease) [3]: 1.961

Which results are given for `Cc1cn[nH]c1.Cl` [4-Methylpyrazole hydrochloride]?
mean (sheet LOPAC_screen_w_protease, LOPAC1280 primary screen with protease, 5 µM compound, mean of the two replicates): 4.54; Replicate_2 (sheet LOPAC_screen_w_protease, LOPAC1280 primary screen with protease, 5 µM compound, replicate 2): 6.559

`CC(=O)NCCc1c[nH]c2ccccc12` [N-Acetyltryptamine] was tested. Which inhibition at 5 µM (sheet LOPAC_screen_w_protease, LOPAC1280 primary screen at 5 µM, with protease, mean of the two replicates, read-out: mean) did it give?
The inhibition at 5 µM was 0.808%.

And the inhibition at 5 µM (sheet LOPAC_screen_w_protease, LOPAC1280 primary screen at 5 µM, with protease, replicate 1, read-out: Replicate_1)?
The inhibition at 5 µM was 1.07%.

What about the inhibition at 5 µM (sheet LOPAC_screen_w_protease, LOPAC1280 primary screen at 5 µM, with protease, replicate 2, read-out: Replicate_2) of the same compound?
The inhibition at 5 µM was 0.543%.

How did the mean [12] turn out when `COc1ccc2[nH]c3c(c2c1)CCNC3` was run?
The mean was 0.4216.

And the Replicate_1 [13]?
Its Replicate_1 is 0.4542.

And the Replicate_2 [14]?
The Replicate_2 was 0.3889.

What does the source list for `CC(N)(Cc1ccc(O)cc1)C(=O)O` (racemic) [DL-alpha-Methyl-p-tyrosine]?
mean (sheet LOPAC_screen_w_protease, LOPAC1280 at 5 µM, mean of two replicates): 1.1698; Replicate_1 (sheet LOPAC_screen_w_protease, LOPAC1280 at 5 µM, replicate 1): 0.7226; Replicate_2 (sheet LOPAC_screen_w_protease, LOPAC1280 at 5 µM, replicate 2): 1.617

How did the mean [9] turn out when `O=C(O)CN(CCN(CC(=O)O)CC(=O)O)CCN(CC(=O)O)CC(=O)O` [Diethylenetriaminepentaacetic acid] was run?
Its mean is 3.2.

And the Replicate_1 [10]?
Its Replicate_1 is 5.3521.

And the Replicate_2 [11]?
Its Replicate_2 is 1.048.

How did the mean [9] turn out when `CCCCCCCCCCCCCCCC(=O)NCC(COP(=O)([O-])OCC[N+](C)(C)C)OCC` (racemic) was run?
Its mean is 3.428.

And the Replicate_1 [10]?
Its Replicate_1 is 7.48.

What about the Replicate_2 [11] of the same compound?
Its Replicate_2 is -0.6245.

How did the inhibition at 5 µM [4] turn out when `COc1ccc(C2CNC(=O)C2)cc1OC1CCCC1` (centres unmarked) [Rolipram] was run?
Its inhibition at 5 µM is -0.575%.

And the inhibition at 5 µM [5]?
The inhibition at 5 µM was -0.0105%.

And the inhibition at 5 µM [6]?
The inhibition at 5 µM was -1.14%.
